Where two headings read alike, the source gives them in different places.
Columns and labels:
[1] = test system: SSL-induced skin tumors in SKH-1 hairless mice
Method: The effectiveness of different candidate compounds in preventing sUV-induced cancer was evaluated. SKH-1 hairless mice (Charles River, Burlington, Massachusetts) were treated with formulations including one or more candidate compounds and exposed to SSL (solar simulated light). Female mice aged 5-6 weeks at the beginning of the study were used. The mice were exposed to SSL three times a week for 15 weeks from the beginning of the study. At week 1, the SSL dose included 37 kJ/m^2 UVA and 1.8 kJ/m^2 UVB three times per week. […] At week 6, the dose included 60 kJ/m^2 UVA and 2.9 kJ/m^2 UVB and this dose was maintained until week 15 at which time SSL exposure was stopped. Each mouse received a topical application (on the dorsal skin surface posterior to the base of the neck and anterior to the base of the tail) of one or more candidate compounds in a base cream one hour before SSL exposure. 15 weeks onwards, the mice were no longer exposed to SSL but the topical application of cream with sunscreen compounds was continued until 30 weeks. Control mice received topical application of cream with sunscreen compounds but no SSL.
Tumors were counted by sight. The dimensions of each tumor were measured using a digital caliper. Tumor volume (mm^3) was determined as (length×width^2)×0.52, where the length and width were measured in mm. […] Average or total tumor volumes were compared between vehicle (cream)-treated mice exposed to SSL and compound in cream-treated mice exposed to SSL.

[2] = test system: skin of SKH-1 hairless mice; assay: H&E staining of skin of mice treated with anti-sUV agents; assay type: in vivo, mouse; settings: solar UV-exposed groups G13-G24
From the text: FIG. 40 is a photograph comparing H&E (hematoxylin and eosin) stained tissue sample of mice exposed to solar ultraviolet and treated with anti-sUV agents and mice unexposed to solar ultraviolet. H&E staining can show skin damage (see TABLE 5 for group identification). […] None of the compounds in the absence of solar UV caused any damage and none had any adverse effect on skin thickness. G11 and G12 are the positive controls, being groups treated with solar UV without or with vehicle (cream).

[3] = test system: Ki-67; assay: Ki-67 immunohistological staining of skin of mice treated with anti-sUV agents; assay type: in vivo, mouse; settings: solar UV-exposed groups
From the text: FIG. 41 is a photograph comparing Ki-67 immunohistological-stained tissue samples of mice exposed to solar ultraviolet and treated with anti-sUV agents and mice unexposed to solar ultraviolet.

[4] = following one hour of exposure to sunlight; cited from earlier work
[5] = SSL-exposed, compound in cream, percent per TABLE 5, 15 mice
[6] = no SSL exposure, compound in cream, percent per TABLE 5

In the case of `COc1ccc(C(=O)CC(=O)c2ccc(C(C)(C)C)cc2)cc1` [Avobenzone], the “% Effective Protection (% reduction in tumor volume vs SSL with cream only)” value ([1]; SSL-exposed, compound in cream, percent per TABLE 5) is reported as 72.8%, the “% Mice with tumor” value [1, 5] is reported as 93.3% and the “% Mortality” value [1, 5] is reported as 6.7%. For the same compound, the “Average volume of tumors” value [1, 5] was 46.1 mm^3, the “Avg. no. of tumors” value [1, 5] was 3.7 and the “Number of dead mice” value [1, 5] was 1. The “Total no. of tumors” value [1, 5] was 55, the “Total volume of tumors” value [1, 5] was 691.5 mm^3 and the “% Mice with tumor” value ([1]; female, SKH-1 hairless, mouse, in vivo, 30 weeks) was 0%. For the same compound, the “% Mortality/Number of dead mice” value [1, 6] was 0, the “Total/Average volume of tumors” value [1, 6] was 0 and the “Total/Avg. no. of tumors” value [1, 6] was 0. The “H&E staining: epidermal thickening and skin damage” value [2] was “epidermal thickening and skin damage”, the “Ki-67 staining: abnormal cell proliferation” value [3] was “extensive abnormal proliferation” and the “change in UV absorbance” value [4] was “approximately 36%”.

Reference: patent US12233073B2, “Skin care formulations and skin cancer treatment” (Regents of the University of Minnesota, priority 2017, dated 2025)
